Source: patent publication US7713994B2 (Wyeth LLC, priority 2005, dated 2010)
Read-outs that look alike come from different tables or passages of the source.

Legend:
[1] = target: T1, cyclin D1/cdk 4 enzyme (Homo sapiens, UniProt P11802); assay: CDK4 ELISA kinase assay (phospho-Rb ser 795 detection); assay type: biochemical; conditions: In Vitro Enzyme Assays, 200 μM ATP, read-out: CDK4 IC50
T1 construct: made in house; host or cells: Sf9 insect cells, recombinant baculovirus
Procedure, shortened: (§1)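 Sf9-derived cyclin/CDK, 200 μM ATP, immobilized GST-Rb; 30° C/1 h. Detection: phospho-Ser795 Ab, HRP, TMB, OD450.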

[2] = target: T2, cyclin E/CDK2 enzyme (Homo sapiens, UniProt P24941); assay: CDK2 ELISA kinase assay (phospho-Rb ser 795 detection); assay type: biochemical; conditions: In Vitro Enzyme Assays, read-out: CDK2 IC50
T2 construct: made in house; host or cells: Sf9 insect cells, recombinant baculovirus
Procedure, shortened: as §1

[3] = target: T3, cyclin B/CDK1 enzyme (Homo sapiens, UniProt P06493); assay: CDK1 ELISA kinase assay (phospho-Rb ser 795 detection); assay type: biochemical; conditions: In Vitro Enzyme Assays, read-out: CDK1 IC50
T3 construct: purchased New England BioLabs; host or cells: Sf9 insect cells, recombinant baculovirus
Procedure, shortened: as §1

[4] = test system: BT474; assay: Cytotoxicity assay (SRB), BT474; assay type: cell-based; conditions: Homo sapiens, BT-474, 144 h, read-out: In Vitro Cellular Activity IC50 BT474
Procedure, shortened: (§2)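 Protein staining with sulforhodamine B after cold TCA fixation served as the survival endpoint (A540, relative to untreated cells). Before staining, cells were incubated with compound at 37 °C, 7% CO2 for 3 days, or 6 days for BT474.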

[5] = test system: HCT-116; assay: Cytotoxicity assay (SRB), HCT-116; assay type: cell-based; conditions: Homo sapiens, HCT-116, 72 h, read-out: In Vitro Cellular Activity IC50 HCT116
Procedure, shortened: as §2

[6] = test system: LoVo; assay: Cytotoxicity assay (SRB), LoVo; assay type: cell-based; conditions: Homo sapiens, LoVo, 72 h, read-out: In Vitro Cellular Activity IC50 LOVO
Procedure, shortened: as §2

[7] = test system: MCF-7; assay: Cytotoxicity assay (SRB), MCF-7; assay type: cell-based; conditions: Homo sapiens, MCF7, 72 h, read-out: In Vitro Cellular Activity IC50 MCF-7
Procedure, shortened: as §2

T3 sequence (P06493 whole entry): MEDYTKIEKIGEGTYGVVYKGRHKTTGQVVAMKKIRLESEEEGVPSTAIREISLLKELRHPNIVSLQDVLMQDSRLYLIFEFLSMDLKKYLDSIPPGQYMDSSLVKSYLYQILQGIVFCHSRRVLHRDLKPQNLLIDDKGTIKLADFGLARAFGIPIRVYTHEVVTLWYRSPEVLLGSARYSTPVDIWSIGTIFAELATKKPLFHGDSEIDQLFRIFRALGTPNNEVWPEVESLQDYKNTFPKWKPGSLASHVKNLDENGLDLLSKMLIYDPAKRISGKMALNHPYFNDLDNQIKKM
T3 sequence (P14635 whole entry partner): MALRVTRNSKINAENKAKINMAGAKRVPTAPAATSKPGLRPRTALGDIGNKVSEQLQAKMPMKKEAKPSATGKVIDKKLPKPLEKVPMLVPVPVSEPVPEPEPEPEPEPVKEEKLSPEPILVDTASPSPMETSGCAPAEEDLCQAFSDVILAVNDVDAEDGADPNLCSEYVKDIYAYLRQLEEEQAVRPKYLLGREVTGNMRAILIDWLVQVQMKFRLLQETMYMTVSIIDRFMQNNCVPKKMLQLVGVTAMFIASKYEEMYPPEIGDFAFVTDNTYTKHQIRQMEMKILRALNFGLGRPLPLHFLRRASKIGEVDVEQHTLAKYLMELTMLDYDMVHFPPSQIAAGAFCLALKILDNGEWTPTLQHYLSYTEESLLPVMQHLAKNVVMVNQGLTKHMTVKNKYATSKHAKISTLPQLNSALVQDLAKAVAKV
T1 sequence (P11802 whole entry, species assumed): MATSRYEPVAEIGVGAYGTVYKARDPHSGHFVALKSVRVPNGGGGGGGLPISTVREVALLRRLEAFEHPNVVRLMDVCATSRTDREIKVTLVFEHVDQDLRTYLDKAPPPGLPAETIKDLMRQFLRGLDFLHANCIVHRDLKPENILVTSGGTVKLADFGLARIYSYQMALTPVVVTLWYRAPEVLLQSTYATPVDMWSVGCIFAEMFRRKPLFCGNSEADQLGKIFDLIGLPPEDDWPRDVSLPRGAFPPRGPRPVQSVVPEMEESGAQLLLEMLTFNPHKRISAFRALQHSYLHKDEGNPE
T1 sequence (P24385 whole entry partner, species assumed): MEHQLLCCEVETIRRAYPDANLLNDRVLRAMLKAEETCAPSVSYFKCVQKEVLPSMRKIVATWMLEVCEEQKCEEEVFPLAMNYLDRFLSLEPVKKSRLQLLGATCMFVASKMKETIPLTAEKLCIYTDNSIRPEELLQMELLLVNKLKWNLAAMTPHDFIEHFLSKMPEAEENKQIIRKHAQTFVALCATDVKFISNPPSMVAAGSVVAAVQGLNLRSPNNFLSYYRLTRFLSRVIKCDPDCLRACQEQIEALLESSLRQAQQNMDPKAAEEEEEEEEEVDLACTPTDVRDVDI

SMILES	IC50 [1]	IC50 [2]	IC50 [3]	IC50 ([4]; BT474 cells, SRB, 6 days)	IC50 ([5]; HCT116 cells, SRB, three days)	IC50 ([6]; LoVo cells, SRB, three days)	IC50 ([7]; MCF-7 cells, SRB, three days)	melting point	IC50 [4]	IC50 [5]	IC50 [6]	IC50 [7]	IC50 ([4]; BT474 cells, 6 days, SRB)	IC50 ([5]; HCT116 cells, 3 days, SRB)	IC50 ([6]; LoVo cells, 3 days, SRB)	IC50 ([7]; MCF-7 cells, 3 days, SRB)
CN1CCC(c2ccc(N/C=C3\C(=O)NC(=O)c4ccc(Br)cc43)cc2)CC1 [Example 344, (4Z)-6-Bromo-4-({[4-(1-methylpiperidin-4-yl)phenyl]amino}methylene)isoquinoline-1,3(2H,4H)-dione]	0.46 µM	> 50 µM	> 50 µM	4.2 µM	2.6 µM	2.8 µM	1.6 µM	217 to 218 °C	–	–	–	–	–	–	–	–
O=C1NC(=O)c2ccc(-c3ccoc3)cc2C1=NNc1ccc(CN2CCCCC2)cc1 [Example 156, 6-Furan-3-yl-4-[(4-piperidin-1-ylmethyl-phenyl)-hydrazono]-4H-isoquinoline-1,3-dione]	0.04 µM	> 50 µM	> 50 µM	2.6 µM	2.5 µM	6.4 µM	1.5 µM	223 to 225 °C (dec.)	–	–	–	–	–	–	–	–
CN1CCN(c2ccc(N/C=C3\C(=O)NC(=O)c4ccc(-c5ccoc5)cc43)cc2F)CC1 [Example 297, (4Z)-4-({[3-Fluoro-4-(4-methylpiperazin-1-yl)phenyl]amino}methylene)-6-(3-furyl)isoquinoline-1,3(2H,4H)-dione]	0.08 µM	> 50 µM	> 50 µM	1.2 µM	2.2 µM	2 µM	0.95 µM	203 to 204 °C	–	–	–	–	–	–	–	–
CN1CCN(c2ccc(N/C=C3\C(=O)NC(=O)c4ccc(-c5ccc(-c6cccs6)s5)cc43)cc2)CC1 [Example 182, (4Z)-6-(2,2′-Bithien-5-yl)-4-({[4-(4-methylpiperazin-1-yl)phenyl]amino}methylene)-isoquinoline-1,3(2H,4H)-dione]	2.3 µM	> 50 µM	2.3 µM	–	–	–	–	204 to 205 °C	17 µM	> 50 µM	> 50 µM	> 50 µM	–	–	–	–
O=C1NC(=O)c2ccc(-n3cccc3)cc2C1=CNCc1cc(=O)c(O)co1 [Example 312, 4-{[(5-Hydroxy-4-oxo-4H-pyran-2-ylmethyl)-amino]-methylene}-6-pyrrol-1-yl-4H-isoquinoline-1,3-dione]	0.27 µM	21.6 µM	> 50 µM	39 µM	> 50 µM	> 50 µM	> 50 µM	310 to 312 °C (dec.)	–	–	–	–	–	–	–	–
CC(=O)Oc1ccc(CN/C=C2\C(=O)NC(=O)c3ccc(Br)cc32)cc1OC(C)=O [Example 54, 2-(Acetyloxy)-4-({[(Z)-(6-bromo-1,3-dioxo-2,3-dihydroisoquinolin-4(1H)-ylidene)methyl]-amino}methyl)phenyl acetate]	0.16 µM	> 50 µM	> 50 µM	6.5 µM	6.4 µM	5.9 µM	9.2 µM	239 to 240 °C	–	–	–	–	–	–	–	–
CC(=O)Nc1ccc(CN/C=C2\C(=O)NC(=O)c3ccc(Br)cc32)cc1OC(C)=O [Example 141, 2-(Acetylamino)-5-({[(Z)-(6-bromo-1,3-dioxo-2,3-dihydroisoquinolin-4(1H)-′ylidene)methyl]amino}methyl)phenyl acetate]	0.19 µM	> 50 µM	> 50 µM	0.56 µM	0.84 µM	1.3 µM	16 µM	264 to 265 °C	–	–	–	–	–	–	–	–
CN1CCN(c2ccc(N/C=C3\C(=O)NC(=O)c4ccc(NS(=O)(=O)c5ccccc5)cc43)cc2)CC1 [Example 188, 1,2,3,4-Tetrahydroisoquinolin-6-yl]benzenesulfonamide′N-[(4Z)-4-({[4-(4-methylpiperazin-1-yl)phenyl]amino}methylene)-1,3-dioxo]	33.2 µM	39.7 µM	24.2 µM	3.3 µM	2.2 µM	11 µM	12 µM	289 to 290 °C	–	–	–	–	–	–	–	–
COc1ccc(-c2ccc3c(c2)/C(=C/Nc2ccc(N4C[C@@H](C)N[C@@H](C)C4)c(F)c2)C(=O)NC3=O)cc1 [Example 345, (4Z)-4-[({4-[(3R,5S)-3,5-Dimethylpiperazin-1-yl]-3-fluorophenyl}amino)methylene]-6-(4-methoxyphenyl)isoquinoline-1,3(2H,4H)-dione]	15.4 µM	43.4 µM	28.3 µM	0.91 µM	0.94 µM	1.2 µM	1.4 µM	227 to 228 °C	–	–	–	–	–	–	–	–
CN(C)C[C@@H]1CCCN1Cc1ccc(N/C=C2\C(=O)NC(=O)c3ccc(I)cc32)cc1 [Example 423]	1.4 µM	> 50 µM	> 50 µM	–	–	–	–	130 to 131 °C	–	–	–	–	5.4 µM	3.8 µM	4.5 µM	4.3 µM
C[C@@H]1CN(c2ccc(N/C=C3\C(=O)NC(=O)c4ccc(-c5ccoc5)cc43)cc2F)C[C@H](C)N1 [Example 324, (4Z)-4-[({4-[(3R,5S)-3,5-Dimethylpiperazin-1-yl]-3-fluorophenyl}amino)methylene]-6-(3-furyl)isoquinoline-1,3(2H,4H)-dione]	0.17 µM	> 50 µM	> 50 µM	0.74 µM	0.96 µM	3.3 µM	0.83 µM	222 to 223 °C	–	–	–	–	–	–	–	–
O=C1NC(=O)c2ccc(Br)cc2/C1=C/Nc1cc(F)c(N2CCN3CCC[C@H]3C2)c(F)c1 [Example 370, (4Z)-6-Bromo-4-[({3,5-difluoro-4-[(8aS)-hexahydropyrrolo[1,2-a]pyrazin-2(1H)-yl]phenyl}amino)methylene]isoquinoline-1,3(2H,4H)-dione]	21.1 µM	> 50 µM	42.5 µM	6.3 µM	4.2 µM	6.4 µM	6.7 µM	190 to 191 °C	–	–	–	–	–	–	–	–
COc1ccc(CN/C=C2\C(=O)NC(=O)c3ccc(NS(=O)(=O)c4ccccc4)cc32)cc1O [Example 196, N-((4Z)-4-{[(3-Hydroxy-4-methoxybenzyl)amino]methylene}-1,3-dioxo-1,2,3,4-′tetrahydroisoquinolin-6-yl)benzenesulfonamide]	1.1 µM	40.6 µM	> 50 µM	37 µM	35 µM	37 µM	38 µM	245 to 246 °C	–	–	–	–	–	–	–	–
